US5308763A, “Method of making primary culture of olfactory neurons” (The Johns Hopkins University, priority 1992, dated 1994)
“Also recorded” adds a separate entry of the source. Read-outs that look alike come from different tables or passages of the source.

Key:
NG-108 cells = assay: Effect of odorant on cyclic AMP levels in NG-108 cells (RIA); assay type: cell-based; conditions: for activity at 10 µM: 10 uM IBMP, ± SEM, read-out: cAMP
Protocol: (§1) After 5-7 days in primary culture, olfactory neuronal cells were exposed to odorants and cyclic AMP levels assayed. To avoid transient changes in intracellular cyclic AMP levels caused by feeding, the medium was changed to 0.5 ml of MEM-AIR containing 0.1% (w/v) RIA-grade BSA 2-3 hr before use. At zero-time, cultures received an additional 0.5 ml of MEM-AIR with or without 10 uM 2-isobutyl-3-methoxypyrazine (IBMP). At various times thereafter the entire medium was aspirated and the reaction quenched by addition of 6% in cold TCA. Cellular extracts were processed and RIA for cyclic AMP was performed as described below.
(§2) Primary cultures of olfactory neurons were plated in laminin-treated 24-well cluster dishes at a density of 1×10^6 cells per cm^2. Cells were used between days 5-7 in culture. Thirty min before experimentation, monolayers were fed wtih MEM-AIR containing 0.1% (w/v) RIA grade BSA. Immediately prior to use, odorants were diluted from a 50 mM stock in absolute ethanol to 10 uM. At zero time, 0.5 ml of MEM-AIR containing 0.1% RIA grade BSA and odorant at twice the final concentration was added to wells.
(§3) The experiment was terminated by aspiration of culture medium and addition of 200 ul of 6% (w/v) trichloroacetic acid (TCA) at 0° C. Culture wells were heated to 56° C. in an oven for 1 hr, scraped, sonicated, chilled, and microfuged for 30 sec. The supernatants were extracted 4 times with 5 volumes of ether, and the ether-extracted water phase was lyophilized to dryness. Samples were resuspended in 200 ul of RIA-NEN buffer (NEN/DuPont, Boston, Mass.) and RIA assay was performed according to specifications of the cyclic AMP kit.
1 NG-108 cells (a generous gift from Dr. Karen Braas, University of Vermont, Burlington, Vt.) were grown and maintained as previously described (Braas, Childers and U'Prichard, 1983). For experimentation, cells were plated in 24-well clustered dishes and treated similarly to olfactory neurons. NG-108 cells are hybrid cells of a globlastoma and a non-olfactory neural-like cell. NG-108 is a continuous cell line.

[1] = tested on: Primary olfactory neurons; assay: Effect of odorant on cyclic AMP levels in primary olfactory neuron cultures (RIA); assay type: cell-based, rat; conditions: for activity at 10 µM: Rattus norvegicus, Neuron, 10 uM IBMP, ± SEM, read-out: cAMP
Protocol: as §1, §2, §3

adenylyl cyclase = assay: Adenylyl cyclase augmentation in olfactory neuronal cultures by odorants; assay type: cell-based
Description: The cells of the olfactory epithelium from which the neuronal cells have been purified are mainly the sustentacular cells and the basal cells. These cells can be distinguished on the basis of morphology, marker proteins, and lack of excitability.

olfactory neurons [2] = assay: Evaluation of substrate matrix substances for plating efficiency and morphology of olfactory neurons; assay type: cell-based, rat; conditions: for plating efficiency (in words) / process / neurite outgrowth (in words): culture surface coated with the substance
Protocol: Two chamber slides were pretreated in a number of ways, For laminin coating, 1 ml of MDV containing 25 ug/ml laminin was plated onto glass two-chamber slides overnight at 37° C.; before use, the slides were rinsed with MDV. For fibronectin, slides were treated with a solution containing 1 ml of MDV containing 20 ug/ml fibronectin (Collaborative Research), incubated overnight at 37° C. and rinsed with MDV prior to use. For polyornithine (PORN, Sigma Chemicals), a solution of a concentration of 1 mg/ml PORN in deionized distilled water was added to slides, incubated 1 hr at 37° C., rinsed twice with deionized distilled water, and rinsed once with MDV prior to use. When laminin was used on PORN-treated slides, slides were treated with PORN and then laminin in the usual manner. Coating of slides with poly-D-lysine was performed analogous to treatment with polyornithine. Heparan sulfate was diluted in MDV to a concentration of 10 ug/ml and 1 ml was placed on a slide, maintained overnight at 37° C., and rinsed with deionized distilled water prior to use. Collagen (Gibco) or collage IV (Collaborative Research) was prepared as a 50 ug/ml solution in deionized distilled water and 1 ml of this solution utilized per slide. In the case of collagen, the solution was allowed to air dry. Collage IV was maintained overnight at room temperature, aspirated, air dried and then rinsed twice with deionized distilled water prior to use. When laminin was used with collagen IV, collage IV was prepared as described, and laminin was subsequently added in the usual manner. Matrigel (Collaborative Research) was utilized according to manufacturer's instructions.
Primary cultures were prepared as described above and plated onto a number of different substrates and examined by phase contrast as well as immunofluorescence with antivimentin antisera (FIG. 6).
Matrigel was also examined as a substrate (FIG. 7).

olfactory neurons [3] = assay: Effect of NGF on olfactory neuronal survival and neurite extension; assay type: cell-based, rat
[4] = read-out: concentration eliciting comparable levels of excitation (50% of maximal adenylyl cyclase augmentation)

COc1nccnc1CC(C)C [IBMP, 2-isobutyl-3-methoxypyrazine]
activity at 10 µM (NG-108 cells; NG-108, 0.5 min, time 0.5 min): 103 ± 19% | activity at 10 µM (NG-108 cells; NG-108, 1 min, time 1.0 min): 94 ± 32% | activity at 10 µM (NG-108 cells; NG-108, 5 min, time 5.0 min): 99 ± 16% | activity at 10 µM (NG-108 cells; NG-108, 0.25 h, time 15 min): 70 ± 41% | change of cyclic AMP levels (in words) (NG-108 cells; NG-108 cells, similar treatment): does not alter cyclic AMP levels | activity at 10 µM ([1]; 0.5 min): 350 ± 160% | activity at 10 µM ([1]; 1 min): 250 ± 92% | activity at 10 µM ([1]; 5 min): 270 ± 113% | activity at 10 µM ([1]; 0.25 h, time 15 min): 175 ± 47% | maximum increase in intracellular cyclic AMP over control levels ([1]; olfactory neurons): approximately three | rise in intracellular cyclic AMP levels (in words) ([1]; olfactory neurons): rapid, transient rise in intracellular cyclic AMP levels | EC50 (adenylyl cyclase; read-out: concentration stimulating to 50% of maximal adenylyl cyclase augmentation): 1 nM

CC(C)=CCCC(C)=CC#N [citralva]
EC50 (adenylyl cyclase; [4]): 1000 to 10000 nM

CC(C)CC(=O)O [isovaleric acid]
EC50 (adenylyl cyclase; [4]): 1000 to 10000 nM

collagen
plating efficiency (in words) (olfactory neurons [2]): somewhat better plating efficiency than poly-D-lysine, polyornithine or heparan-sulfate | process / neurite outgrowth (in words) (olfactory neurons [2]): process outgrowth is still stunted

fibronectin
process / neurite outgrowth (in words) (olfactory neurons [2]): processes are shorter

laminin
plating efficiency (in words) (olfactory neurons [2]): optimal plating efficiency | process / neurite outgrowth (in words) (olfactory neurons [2]): cells extend neurites in a random fashion | aggregation of cells (in words) (olfactory neurons [2]; duplicate suspensions, laminin vs matrigel, FIG. 7): no tendency to reaggregate

B1: NGF: nerve growth factor (NGF, Collaborative Research) (protein, UniProt P01139 122-241, looked up)
Beta-nerve growth factor: SSTHPVFHMGEFSVCDSVSVWVGDKTTATDIKGKEVTVLAEVNINNSVFRQYFFETKCRASNPVESGCRGIDSKHWNSYCTTTHTFVKALTTDEKQAAWRFIRIDTACVCVLSRKATRRG
modifications: Beta-nerve growth factor
survival and neurite extension (in words) (olfactory neurons [3]; NGF 25 ng/ml): necessary for survival of olfactory neurons; also recorded: affects both olfactory neuronal survival and neurite extension in culture | process extension without NGF (in words) (olfactory neurons [3]; by 3 days in culture, without NGF): lose process extension | decrease of cell viability without NGF (olfactory neurons [3]; by 3 days in culture, without vs with 25 ng/ml NGF): approximately 85%
